Test results as given in US12653187B2, “Sulfur based pesticides” (AGRONATURALIS LTD, priority 2019, dated 2026).

Assay: Surface tension and equilibrium contact angle by drop shape analyser (Example 7)
Assay type: physicochemical
Experimental: The wetting properties of the individual surfactants and in combination were evaluated by dissolving the surfactants at various concentrations in deionised water. Surface tension and equilibrium contact angle were measured in triplicate using a drop shape analyser with results given in Table 9 below.

Compound	contact angle (°) (0.005 % w/w in deionised water)	surface tension (mN/m) (0.005 % w/w in deionised water)	contact angle (°) (0.010 % w/w in deionised water)	surface tension (mN/m) (0.010 % w/w in deionised water)	contact angle (°) (0.025 % w/w in deionised water)	surface tension (mN/m) (0.025 % w/w in deionised water)	contact angle (°) (0.050 % w/w in deionised water)	surface tension (mN/m) (0.050 % w/w in deionised water)	contact angle (°) (0.100 % w/w in deionised water)	surface tension (mN/m) (0.100 % w/w in deionised water)	contact angle (°) (0.200 % w/w in deionised water)	surface tension (mN/m) (0.200 % w/w in deionised water)	contact angle (°) (0.250 % w/w in deionised water)	surface tension (mN/m) (0.250 % w/w in deionised water)	contact angle (°) (0.500 % w/w in deionised water)	surface tension (mN/m) (0.500 % w/w in deionised water)
CCCCC(CC)COC(=O)CC(C(=O)OCC(CC)CCCC)S(=O)(=O)[O-].[Na+] (stereo not shown) [sodium dioctylsulfosuccinate]	54.1	44.3	38.2	43.6	35.4	34.7	31.5	32.2	28.7	28.3	24.4	26.8	22.8	26.1	21.4	25.3
CCCCCCCCCCCCOS(=O)(=O)[O-].[Na+] [sodium lauryl sulfate]	107.1	70.6	–	–	72.8	56.8	63.9	46.1	55.3	37.2	51.5	34.2	50.6	33.4	–	–
